Measured values published in US20120122115A1, “Bacterial quorum sensing biosensor” (priority 2006, published 2012).

Legend:
[1] = system: V. harveyi strain MM30 (luxS-); test: Bacterial reporter bioassay (luminescence) and EC50 determination; assay type: cell-based; settings: MM30 in borate-free AB medium
Description: V. harveyi strain MM30 (luxS^−) is grown overnight at 28° C. for 16 hours and diluted 1:5000 in fresh borate-free AB medium. Bacteria (90 μL) are added to a 96-well microtiter plate containing 10 μL dilutions of the sample and incubated for 4 hours at 30° C. Luminescence is read using a Wallac Victor2 multimode plate reader (Perkin-Elmer). The BAI-2 concentration required for 50% maximum luminescence response (EC50) is determined using a relationship based on the luminescence response L for different ligand concentrations (s)
where Lmin and Lmax represent the minimum and maximum luminescence responses, respectively, at the time of measurement.

[2] = target: CLPY biosensor (CFP-LuxP-YFP fusion) (Vibrio harveyi, UniProt P54300, D303A); test: CLPY FRET binding affinity determination; design: species or system V. harveyi
Description: The YFP or CFP fluorescence response of wild-type and mutant forms of CLPY (1.0 mL, 0.015 mg/mL) to different ligands is measured 5 minutes after addition of the ligand to the protein at room temperature. No time-dependent changes in the CLPY FRET ratio are observed after incubation for 5 minutes. All BAI-2 dilutions are carried out in a borate-free buffer to maintain the DPD:borate ratio (1:4). The CLPY FRET ratio response to different BAI-2 concentrations is used to generate the ligand binding saturation curve. For the determination of the binding affinity (Kd) and the binding stoichiometry n, a nonlinear regression analysis equation (Equation 4) is used as shown below: […]
where R is the observed CLPY FRET ratio response for different ligand concentrations (s) and Rmax and Rmin represent the ligand-free and ligand-saturated FRET ratios, respectively.

## CC(=O)C(=O)C(O)CO (stereo not shown) [DPD, 4,5-dihydroxy-2,3-pentanedione]
[1]
  bacterial reporter strain luminescence response (qualitative): did not respond
[2]; DPD ≦100 μM
  CLPY FRET response: did not exhibit any detectable FRET response

## OB(O)O [borate]
[1]
  bacterial reporter strain luminescence response (qualitative): did not respond
[2]; borate ≦400 μM
  CLPY FRET response: did not exhibit any detectable FRET response
